Measurements as given in patent publication US20200078408A1, “GENE THERAPY” (Ospedale San Raffaele S.r.l., priority 2017, published 2020).

Key:
B-ALL = B-ALL challenge of mice reconstituted with Tie2-vector transduced HSPCs (Example 7); format: in vivo, mouse; settings: FIG. 31A
Excerpt: We employed a transplantable model of B-acute lymphoblastic leukaemia (B-ALL) closely mimicking human Philadelphia-like B-ALL (Nucera, S. et al. (2016) Cancer Cell 29: 905-921), which readily induces a protumoral, immunosuppressive microenvironment characterised, for example, by the appearance of myeloid-derived suppressor cells, downregulation of MHC class II genes and upregulation of IL10 and PD1.
Eight weeks post transplant, upon reconstitution of the peripheral blood, animals received the B-ALL that is then followed by frequent blood collection. […]
We then combined the contemporaneous delivery of several immunostimulatory cytokines into the leukaemia microenvironment using the Tie2 vector backbone equipped with different transgene cargo. […] Vector copy number of the single vectors measured by specific quantitative PCR assays was rather low ranging from 0.1 to 0.3 in the reconstituted mice. […]
Furthermore, we evaluated the potential synergy of our gene therapy-based delivery of IFNy with other immunotherapeutic strategies including checkpoint inhibitors anti-CTLA-4 and anti-LAG-3 and the inhibitor of the IDO enzyme, 1-Methyl-Tryptophan (1-MT). […] Vector copy number of the single vectors measured by specific quantitative PCR assays was 0,72 for the Tig126/130a and 0,84 for the controls in the reconstituted mice. […]

[1] = tested on: macrophages, myeloid-derived suppressor cells, CD8+ T cells; assay: tumour microenvironment readouts at sacrifice in the B-ALL model (Example 7); format: in vivo, mouse; settings: combined with gene therapy-based delivery of IFNγ (Tig126/130a)

In the case of `Cn1cc(CC(N)C(=O)O)c2ccccc21` (stereo not shown) [1-MT, 1-Methyltryptophan], the disease progression (B-ALL; combined with gene therapy-based delivery of IFNγ (Tig126/130a)) was “reduction of the disease progression”, the B-ALL progression (B-ALL; monotherapy) was “no beneficial effect” and the “MHC class II expression on splenic and bone marrow macrophages” value ([1]; FIG. 31) was “significant increase”. For the same compound, the “cytotoxic CD8+ T cells in the spleen” value ([1]; FIG. 31D) was “increase”.
